Results from PMC12196264, “Design and Synthesis of Pyridine-Based Pyrrolo[2,3-d]pyrimidine Analogs as CSF1R Inhibitors: Molecular Hybridization and Scaffold Hopping Approach” (Pharmaceuticals, 2025).
≈ marks a conversion by molar mass, not a printed value.

Experiments:
CSF1R = CSF1R (Homo sapiens, UniProt P07333); assay: CSF1R enzymatic inhibitory assay (TR-FRET LANCE Ultra); format: biochemical; details: single eight-point titrations, ATP 25 μM, R^2 of fit in parentheses
Procedure: The TR-FRET-based LANCE Ultra assay (Perkin Elmer, Waltham, MA, USA) was used to determine IC50 values for various CSF1R inhibitors. Kinase activity and inhibition in this assay was measured as previously reported. Scigilian Analyze software version 5.8.5.15 (Scigilian, Montreal, QC, Canada) was used.

Kinetic solubility = format: physicochemical; details: aqueous buffer, kinetic from dmso stock; spectrophotometric, pH 7.4 in HEPES buffer
Procedure: (§1) The aqueous solubility of the compounds and metabolic stability under oxidative conditions was performed as described previously.

[1] = Microsomal stability, mouse liver microsomes; format: in vitro ADME; details: mouse liver microsome
Procedure: as §1

MDCK permeability assay = format: in vitro ADME, canine; details: dog, MDCK monolayer
Procedure: Six selected compounds were assessed for metabolic stability (clearance) in mouse liver microsomes (MLM) and human liver microsomes (HLM), and apparent permeability (Papp) using a MDCK permeability assay. […] Although currently limited by solubility and permeability, its metabolic profile provides a starting point for targeted structural modifications aimed at overcoming these challenges.

AKT1 = AKT1 (Homo sapiens, UniProt P31749); assay: Kinase panel; format: biochemical
Procedure: (§2) Ta b l e S 1. Inhibition (%) by compound 14c towards di7erent kinases. Values are average of two
(§3) measurements at 1000 nM test concentration. The ATP concentration was equal to KM.
(§4) Kinase ATP conc. % inhibition

ALK = ALK (Homo sapiens, UniProt Q9UM73); assay: Kinase panel; format: biochemical
Procedure: as §2, §3, §4

AXL = AXL (Homo sapiens, UniProt P30530); assay: Kinase panel; format: biochemical
Chain of AXL (P30530 26-894, species assumed): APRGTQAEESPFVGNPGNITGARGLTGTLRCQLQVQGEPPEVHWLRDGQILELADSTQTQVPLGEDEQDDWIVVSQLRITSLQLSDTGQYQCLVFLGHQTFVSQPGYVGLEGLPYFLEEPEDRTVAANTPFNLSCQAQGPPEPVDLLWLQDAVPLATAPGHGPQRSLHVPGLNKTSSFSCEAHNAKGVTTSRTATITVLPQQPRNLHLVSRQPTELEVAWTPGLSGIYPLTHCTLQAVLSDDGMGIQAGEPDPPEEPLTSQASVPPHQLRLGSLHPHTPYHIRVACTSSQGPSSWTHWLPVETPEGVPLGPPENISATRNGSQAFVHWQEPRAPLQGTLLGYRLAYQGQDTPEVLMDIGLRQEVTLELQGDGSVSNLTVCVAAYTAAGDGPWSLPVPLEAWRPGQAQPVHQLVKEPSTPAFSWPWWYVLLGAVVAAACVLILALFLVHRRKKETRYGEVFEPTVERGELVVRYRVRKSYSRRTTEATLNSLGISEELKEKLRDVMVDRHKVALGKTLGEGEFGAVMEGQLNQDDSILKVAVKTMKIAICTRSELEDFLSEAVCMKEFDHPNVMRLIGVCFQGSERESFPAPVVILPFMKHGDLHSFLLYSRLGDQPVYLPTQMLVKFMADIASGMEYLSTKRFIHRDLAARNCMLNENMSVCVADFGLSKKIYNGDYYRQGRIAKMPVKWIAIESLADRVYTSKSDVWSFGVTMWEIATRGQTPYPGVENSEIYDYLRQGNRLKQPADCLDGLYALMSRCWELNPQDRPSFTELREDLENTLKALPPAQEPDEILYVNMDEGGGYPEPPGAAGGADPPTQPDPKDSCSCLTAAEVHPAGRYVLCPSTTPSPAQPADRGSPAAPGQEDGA
Procedure: as §2, §3, §4

BLK = BLK (Homo sapiens, UniProt P51451); assay: Kinase panel; format: biochemical
Chain of BLK (P51451 whole entry, species assumed): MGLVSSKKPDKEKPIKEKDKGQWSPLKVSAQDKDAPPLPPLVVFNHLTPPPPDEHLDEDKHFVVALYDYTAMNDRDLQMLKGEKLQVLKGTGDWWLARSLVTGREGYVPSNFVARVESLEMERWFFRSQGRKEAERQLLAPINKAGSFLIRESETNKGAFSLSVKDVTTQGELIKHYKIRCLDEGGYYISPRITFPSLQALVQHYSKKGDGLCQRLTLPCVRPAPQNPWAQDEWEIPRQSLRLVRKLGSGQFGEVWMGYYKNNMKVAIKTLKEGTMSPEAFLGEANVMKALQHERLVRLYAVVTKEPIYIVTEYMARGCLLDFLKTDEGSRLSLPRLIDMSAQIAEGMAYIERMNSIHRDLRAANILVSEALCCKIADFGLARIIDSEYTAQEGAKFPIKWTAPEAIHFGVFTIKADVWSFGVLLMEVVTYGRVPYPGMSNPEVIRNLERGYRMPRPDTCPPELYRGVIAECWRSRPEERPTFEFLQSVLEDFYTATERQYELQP
Procedure: as §2, §3, §4

CAMK1D = CAMK1D (Homo sapiens, UniProt Q8IU85); assay: Kinase panel; format: biochemical
Chain of CAMK1D (Q8IU85 whole entry, species assumed): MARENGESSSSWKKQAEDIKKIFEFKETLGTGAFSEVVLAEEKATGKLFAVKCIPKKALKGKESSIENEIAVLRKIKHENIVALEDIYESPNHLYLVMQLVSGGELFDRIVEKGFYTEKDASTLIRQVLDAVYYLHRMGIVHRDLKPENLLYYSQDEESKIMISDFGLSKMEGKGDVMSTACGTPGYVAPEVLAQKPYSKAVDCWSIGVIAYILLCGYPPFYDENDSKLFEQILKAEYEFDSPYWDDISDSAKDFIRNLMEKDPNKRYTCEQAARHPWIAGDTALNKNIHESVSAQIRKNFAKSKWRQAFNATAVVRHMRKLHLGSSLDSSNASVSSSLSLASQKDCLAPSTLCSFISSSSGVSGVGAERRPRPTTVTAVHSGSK
Procedure: as §2, §3, §4

CLK1 = CLK1 (Homo sapiens, UniProt P49759); assay: Kinase panel; format: biochemical
Chain of CLK1 (P49759 whole entry): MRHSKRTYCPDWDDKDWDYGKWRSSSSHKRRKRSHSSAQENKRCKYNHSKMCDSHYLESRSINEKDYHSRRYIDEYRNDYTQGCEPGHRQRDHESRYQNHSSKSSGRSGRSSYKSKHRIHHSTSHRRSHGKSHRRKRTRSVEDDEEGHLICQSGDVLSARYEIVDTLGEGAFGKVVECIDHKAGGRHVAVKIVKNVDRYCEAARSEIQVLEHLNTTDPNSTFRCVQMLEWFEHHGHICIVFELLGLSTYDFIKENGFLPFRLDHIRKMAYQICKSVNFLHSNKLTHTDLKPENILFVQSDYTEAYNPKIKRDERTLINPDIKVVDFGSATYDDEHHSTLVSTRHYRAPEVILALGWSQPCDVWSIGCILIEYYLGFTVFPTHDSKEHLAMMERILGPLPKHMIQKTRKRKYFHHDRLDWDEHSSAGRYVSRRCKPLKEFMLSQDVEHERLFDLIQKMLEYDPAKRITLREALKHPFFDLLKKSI
Procedure: as §2, §3, §4

DYRK1A = DYRK1A (Homo sapiens, UniProt Q13627); assay: Kinase panel; format: biochemical
Procedure: as §2, §3, §4

EPHA2 = EPHA2 (Homo sapiens, UniProt P29317); assay: Kinase panel; format: biochemical
Procedure: as §2, §3, §4

ERBB2 = ERBB2 (Homo sapiens, UniProt P04626); assay: Kinase panel; format: biochemical
Chain of ERBB2 (P04626 23-1255, species assumed): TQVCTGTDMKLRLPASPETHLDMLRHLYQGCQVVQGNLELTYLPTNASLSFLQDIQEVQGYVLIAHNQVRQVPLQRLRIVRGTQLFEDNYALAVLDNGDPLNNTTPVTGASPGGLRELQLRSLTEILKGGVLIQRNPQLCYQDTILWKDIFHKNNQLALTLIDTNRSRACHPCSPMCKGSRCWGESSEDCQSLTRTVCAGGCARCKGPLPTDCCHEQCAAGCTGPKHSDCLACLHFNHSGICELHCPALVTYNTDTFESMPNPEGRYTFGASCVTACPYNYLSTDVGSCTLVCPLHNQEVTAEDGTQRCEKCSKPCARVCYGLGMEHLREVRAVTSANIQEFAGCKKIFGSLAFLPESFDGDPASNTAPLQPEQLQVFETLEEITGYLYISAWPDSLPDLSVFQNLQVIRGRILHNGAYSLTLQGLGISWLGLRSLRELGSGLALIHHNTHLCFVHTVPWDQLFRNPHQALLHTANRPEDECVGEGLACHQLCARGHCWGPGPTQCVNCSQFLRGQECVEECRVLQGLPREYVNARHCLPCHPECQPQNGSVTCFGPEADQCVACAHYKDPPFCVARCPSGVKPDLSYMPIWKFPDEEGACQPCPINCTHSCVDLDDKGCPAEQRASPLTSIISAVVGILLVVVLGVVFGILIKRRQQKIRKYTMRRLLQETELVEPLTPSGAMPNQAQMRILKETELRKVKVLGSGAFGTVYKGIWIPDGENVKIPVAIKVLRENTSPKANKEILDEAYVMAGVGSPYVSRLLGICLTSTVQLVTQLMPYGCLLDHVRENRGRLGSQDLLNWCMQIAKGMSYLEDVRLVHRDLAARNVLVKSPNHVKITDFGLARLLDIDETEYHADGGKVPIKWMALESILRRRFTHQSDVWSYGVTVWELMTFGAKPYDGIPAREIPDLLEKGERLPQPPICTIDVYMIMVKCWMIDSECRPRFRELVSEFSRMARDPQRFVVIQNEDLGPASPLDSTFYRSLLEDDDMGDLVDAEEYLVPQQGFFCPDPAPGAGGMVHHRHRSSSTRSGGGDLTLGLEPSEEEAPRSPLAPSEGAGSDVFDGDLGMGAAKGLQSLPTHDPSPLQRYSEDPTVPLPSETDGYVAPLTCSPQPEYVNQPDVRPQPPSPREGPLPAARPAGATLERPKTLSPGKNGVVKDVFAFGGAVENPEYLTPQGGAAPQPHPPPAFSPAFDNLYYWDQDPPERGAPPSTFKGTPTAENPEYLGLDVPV
Procedure: as §2, §3, §4

FLT3 = FLT3 (Homo sapiens, UniProt P36888); assay: Kinase panel; format: biochemical
Procedure: as §2, §3, §4

GSK3B = GSK3B (Homo sapiens, UniProt P49841); assay: Kinase panel; format: biochemical
Chain of GSK3B (P49841 whole entry, species assumed): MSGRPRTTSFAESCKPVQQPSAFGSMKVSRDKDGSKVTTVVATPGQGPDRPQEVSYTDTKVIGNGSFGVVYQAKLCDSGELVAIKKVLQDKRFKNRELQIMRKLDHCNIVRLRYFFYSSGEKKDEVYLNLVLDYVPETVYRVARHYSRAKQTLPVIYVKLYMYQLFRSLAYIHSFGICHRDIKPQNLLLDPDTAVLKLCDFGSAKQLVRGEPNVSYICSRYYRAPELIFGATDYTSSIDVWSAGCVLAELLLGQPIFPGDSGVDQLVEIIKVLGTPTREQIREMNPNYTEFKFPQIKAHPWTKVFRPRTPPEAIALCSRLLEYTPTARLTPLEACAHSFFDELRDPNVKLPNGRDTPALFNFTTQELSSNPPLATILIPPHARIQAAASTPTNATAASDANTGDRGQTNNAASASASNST
Procedure: as §2, §3, §4

HCK = HCK (Homo sapiens, UniProt P08631); assay: Kinase panel; format: biochemical
Procedure: as §2, §3, §4

JAK1 = JAK1 (Homo sapiens, UniProt P23458); assay: Kinase panel; format: biochemical
Procedure: as §2, §3, §4

KIT = KIT (Homo sapiens, UniProt P10721); assay: Kinase panel; format: biochemical
Procedure: as §2, §3, §4

LTK = LTK (Homo sapiens, UniProt P29376); assay: Kinase panel; format: biochemical
Procedure: as §2, §3, §4

LYN A = LYN A (Homo sapiens, UniProt P07948); assay: Kinase panel; format: biochemical
Chain of LYN A (P07948 whole entry, species assumed): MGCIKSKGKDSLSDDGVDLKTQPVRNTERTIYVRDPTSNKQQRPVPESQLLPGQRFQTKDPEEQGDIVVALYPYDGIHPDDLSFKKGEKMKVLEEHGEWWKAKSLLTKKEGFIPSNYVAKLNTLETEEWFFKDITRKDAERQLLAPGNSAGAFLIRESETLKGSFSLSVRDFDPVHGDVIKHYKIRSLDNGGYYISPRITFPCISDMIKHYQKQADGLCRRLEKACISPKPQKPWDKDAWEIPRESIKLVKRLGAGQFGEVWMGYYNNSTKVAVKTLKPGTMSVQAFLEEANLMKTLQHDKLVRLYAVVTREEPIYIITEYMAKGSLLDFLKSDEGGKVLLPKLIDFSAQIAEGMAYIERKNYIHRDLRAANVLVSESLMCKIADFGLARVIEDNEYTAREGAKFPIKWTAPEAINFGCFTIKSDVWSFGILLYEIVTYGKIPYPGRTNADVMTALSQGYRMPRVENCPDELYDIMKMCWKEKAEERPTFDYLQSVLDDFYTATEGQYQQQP
Procedure: as §2, §3, §4

LYN B = LYN B (Homo sapiens, UniProt P07948); assay: Kinase panel; format: biochemical
Procedure: as §2, §3, §4

NEK1 = NEK1 (Homo sapiens, UniProt Q96PY6); assay: Kinase panel; format: biochemical
Procedure: as §2, §3, §4

SRC = SRC (Homo sapiens, UniProt P12931); assay: Kinase panel; format: biochemical
Chain of SRC (P12931 whole entry, species assumed): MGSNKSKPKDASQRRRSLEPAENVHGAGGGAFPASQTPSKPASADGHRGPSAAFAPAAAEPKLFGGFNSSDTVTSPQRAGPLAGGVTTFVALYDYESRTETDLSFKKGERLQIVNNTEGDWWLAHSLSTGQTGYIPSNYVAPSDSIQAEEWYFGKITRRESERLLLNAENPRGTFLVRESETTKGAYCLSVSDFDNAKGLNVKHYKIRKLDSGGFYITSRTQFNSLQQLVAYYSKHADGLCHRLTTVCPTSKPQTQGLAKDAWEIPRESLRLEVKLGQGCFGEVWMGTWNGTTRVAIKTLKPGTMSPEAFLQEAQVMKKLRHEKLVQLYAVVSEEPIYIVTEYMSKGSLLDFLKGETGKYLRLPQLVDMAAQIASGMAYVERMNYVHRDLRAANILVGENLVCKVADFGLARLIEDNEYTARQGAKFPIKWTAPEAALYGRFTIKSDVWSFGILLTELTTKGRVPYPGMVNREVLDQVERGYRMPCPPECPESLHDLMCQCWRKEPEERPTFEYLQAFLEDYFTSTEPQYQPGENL
Procedure: as §2, §3, §4

YES1 = YES1 (Homo sapiens, UniProt P07947); assay: Kinase panel; format: biochemical
Procedure: as §2, §3, §4

Cc1cccc(CN(C)c2ncnc3[nH]c(-c4ccc(NCc5ccc(C(F)(F)F)nc5)nc4)cc23)c1 [Compound 14c, N-Methyl-N-(3-methylbenzyl)-6-(6-(((6-(trifluoromethyl)pyridin-3-yl)methyl)amino)pyridin-3-yl)-7H-pyrrolo[2,3-d]pyrimidin-4-amine]
IC50 (CSF1R): 7.18 nM | solubility kinetic (Kinetic solubility): 0.7 µM (≈ 0.352 µg/mL) | MLM in vitro intrinsic clearing [1]: 60.5 µL/min/mg | Papp A→B (MDCK permeability assay; A–B direction): 5.4 ×10⁻⁶ cm/s | Papp B→A (MDCK permeability assay; B–A direction): 0.8 ×10⁻⁶ cm/s | efflux ratio (MDCK permeability assay; read-out: MDCK Ratio (Papp B–A/A–B)): 0.14 | inhibition at 1 µM (AKT1): 2% | inhibition at 1 µM (ALK): 11% | inhibition at 1 µM (AXL): 4% | inhibition at 1 µM (BLK): 19% | inhibition at 1 µM (CAMK1D): 8% | inhibition at 1 µM (CLK1): 3% | inhibition at 1 µM (DYRK1A): 4% | inhibition at 1 µM (EPHA2): 23% | inhibition at 1 µM (ERBB2): 9% | inhibition at 1 µM (FLT3): 26% | inhibition at 1 µM (GSK3B): 11% | inhibition at 1 µM (HCK): 16% | inhibition at 1 µM (JAK1): -5% | inhibition at 1 µM (KIT): 18% | inhibition at 1 µM (LTK): 15% | inhibition at 1 µM (LYN A): 18% | inhibition at 1 µM (LYN B): 26% | inhibition at 1 µM (NEK1): 16% | inhibition at 1 µM (SRC): 43% | inhibition at 1 µM (YES1): 65%
